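Grown in 96-well plates, cells were treated for 48 hours with each compound at five concentrations. Insufficient inhibition: endpoint recorded as highest concentration tested. The concentration for 50% growth inhibition is given as GI50. At the TGI there is no net growth.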
Experiments:
Assay in all cases: growth of human tumour cells (NCI), 48 h
786-0 renal = test system: 786-0 renal
A498 renal = test system: A498 renal
A549 NSCLC = test system: A549 NSCLC
ACHN renal = test system: ACHN renal
BT-549 breast = test system: BT-549 breast
CAKI-1 renal = test system: CAKI-1 renal
CCRF-CEM leukemia = test system: CCRF-CEM leukemia
COLO 205 colon = test system: COLO 205 colon
DU-145 prostate = test system: DU-145 prostate
EKVX NSCLC = test system: EKVX NSCLC
HCC-2998 colon = test system: HCC-2998 colon
HCT-116 colon = test system: HCT-116 colon
HCT-15 colon = test system: HCT-15 colon
HL-60(TB) leukemia = test system: HL-60(TB) leukemia
HOP-62 NSCLC = test system: HOP-62 NSCLC
HOP-92 NSCLC = test system: HOP-92 NSCLC
HS 578T breast = test system: HS 578T breast
HT29 colon = test system: HT29 colon
IGROV1 ovarian = test system: IGROV1 ovarian
K-562 leukemia = test system: K-562 leukemia
KM12 colon = test system: KM12 colon
LOX IMVI melanoma = test system: LOX IMVI melanoma
M14 melanoma = test system: M14 melanoma
MALME-3M melanoma = test system: MALME-3M melanoma
MCF7 breast = test system: MCF7 breast
MDA-MB-231 breast = test system: MDA-MB-231 breast
MDA-MB-435 = test system: MDA-MB-435
MOLT-4 leukemia = test system: MOLT-4 leukemia
NCI-H226 lung = test system: NCI-H226 lung
NCI-H460 lung = test system: NCI-H460 lung
NCI-H522 lung = test system: NCI-H522 lung
NCI/ADR-RES ovarian = test system: NCI/ADR-RES ovarian
OVCAR-3 ovarian = test system: OVCAR-3 ovarian
OVCAR-4 ovarian = test system: OVCAR-4 ovarian
OVCAR-5 ovarian = test system: OVCAR-5 ovarian
OVCAR-8 ovarian = test system: OVCAR-8 ovarian
PC-3 prostate = test system: PC-3 prostate
RPMI-8226 leukemia = test system: RPMI-8226 leukemia
RXF 393 renal = test system: RXF 393 renal
SF-268 CNS = test system: SF-268 CNS
SF-295 CNS = test system: SF-295 CNS
SF-539 CNS = test system: SF-539 CNS
SK-MEL-2 melanoma = test system: SK-MEL-2 melanoma
SK-MEL-28 melanoma = test system: SK-MEL-28 melanoma
SK-MEL-5 melanoma = test system: SK-MEL-5 melanoma
SK-OV-3 ovarian = test system: SK-OV-3 ovarian
SN12C renal = test system: SN12C renal
SNB-19 CNS = test system: SNB-19 CNS
SNB-75 CNS = test system: SNB-75 CNS
SR leukemia = test system: SR leukemia
SW-620 colon = test system: SW-620 colon
T-47D breast = test system: T-47D breast
TK-10 renal = test system: TK-10 renal
U251 CNS = test system: U251 CNS
UACC-257 melanoma = test system: UACC-257 melanoma
UACC-62 melanoma = test system: UACC-62 melanoma
UO-31 renal = test system: UO-31 renal

With `C/C(=C(/c1ccc(O)cc1)c1ccc(OCCN(C)C)cc1)c1ccc(Cl)cc1` as the compound, how does the GI50 (786-0 renal) read?
The GI50 was 14.8 µM.

What about the TGI (786-0 renal) of the same compound?
The TGI was 29.5 µM.

What about the GI50 (A498 renal) of the same compound?
The GI50 was over 100 µM.

And the TGI (A498 renal)?
The TGI was over 100 µM.

What about the GI50 (A549 NSCLC) of the same compound?
Its GI50 is 50.9 µM.

What about the TGI (A549 NSCLC) of the same compound?
The TGI was over 100 µM.

What about the GI50 (ACHN renal) of the same compound?
The GI50 was 29.1 µM.

What about the TGI (ACHN renal) of the same compound?
The TGI was 89.4 µM.

And the GI50 (BT-549 breast)?
Its GI50 is 40.9 µM.

What about the TGI (BT-549 breast) of the same compound?
Its TGI is over 100 µM.

What about the GI50 (CAKI-1 renal) of the same compound?
Its GI50 is 15.8 µM.

And the TGI (CAKI-1 renal)?
The TGI was 40.9 µM.

What about the GI50 (CCRF-CEM leukemia) of the same compound?
The GI50 was 25 µM.

What about the TGI (CCRF-CEM leukemia) of the same compound?
The TGI was 77.7 µM.

What about the GI50 (COLO 205 colon) of the same compound?
The GI50 was 17.6 µM.

And the TGI (COLO 205 colon)?
The TGI was 33.1 µM.

And the GI50 (DU-145 prostate)?
Its GI50 is 34.3 µM.

And the TGI (DU-145 prostate)?
Its TGI is over 100 µM.

What about the GI50 (EKVX NSCLC) of the same compound?
Its GI50 is 34.4 µM.

And the TGI (EKVX NSCLC)?
The TGI was over 100 µM.

And the GI50 (HCC-2998 colon)?
The GI50 was 18.1 µM.

What about the TGI (HCC-2998 colon) of the same compound?
Its TGI is 35.1 µM.

What about the GI50 (HCT-116 colon) of the same compound?
Its GI50 is 14.8 µM.

What about the TGI (HCT-116 colon) of the same compound?
The TGI was 28.7 µM.

And the GI50 (HCT-15 colon)?
The GI50 was 18 µM.

What about the TGI (HCT-15 colon) of the same compound?
The TGI was 37.7 µM.

What about the GI50 (HL-60(TB) leukemia) of the same compound?
The GI50 was 17.9 µM.

And the TGI (HL-60(TB) leukemia)?
Its TGI is 39.3 µM.

And the GI50 (HOP-62 NSCLC)?
The GI50 was 18.2 µM.

What about the TGI (HOP-62 NSCLC) of the same compound?
The TGI was 38.7 µM.

What about the GI50 (HOP-92 NSCLC) of the same compound?
The GI50 was 22.3 µM.

What about the TGI (HOP-92 NSCLC) of the same compound?
The TGI was 90.3 µM.

What about the GI50 (HS 578T breast) of the same compound?
The GI50 was 20 µM.

What about the TGI (HS 578T breast) of the same compound?
The TGI was 75.9 µM.

And the GI50 (HT29 colon)?
The GI50 was 16 µM.

And the TGI (HT29 colon)?
Its TGI is 31.9 µM.

What about the GI50 (IGROV1 ovarian) of the same compound?
Its GI50 is 31.6 µM.

And the TGI (IGROV1 ovarian)?
Its TGI is over 100 µM.

And the GI50 (K-562 leukemia)?
Its GI50 is 19.6 µM.

And the TGI (K-562 leukemia)?
Its TGI is 53.8 µM.

What about the GI50 (KM12 colon) of the same compound?
The GI50 was 25.6 µM.

And the TGI (KM12 colon)?
The TGI was 72.6 µM.

What about the GI50 (LOX IMVI melanoma) of the same compound?
The GI50 was 17.2 µM.

And the TGI (LOX IMVI melanoma)?
The TGI was 32.1 µM.

And the GI50 (M14 melanoma)?
The GI50 was 17.6 µM.

What about the TGI (M14 melanoma) of the same compound?
Its TGI is 35.3 µM.

And the GI50 (MALME-3M melanoma)?
Its GI50 is 16 µM.

What about the TGI (MALME-3M melanoma) of the same compound?
The TGI was 30.9 µM.

And the GI50 (MCF7 breast)?
The GI50 was 1.69 µM.

And the TGI (MCF7 breast)?
Its TGI is 27.2 µM.

And the GI50 (MDA-MB-231 breast)?
The GI50 was 20.7 µM.

What about the TGI (MDA-MB-231 breast) of the same compound?
Its TGI is 46.1 µM.

What about the GI50 (MDA-MB-435) of the same compound?
Its GI50 is 16.6 µM.

And the TGI (MDA-MB-435)?
Its TGI is 31.4 µM.

And the GI50 (MOLT-4 leukemia)?
The GI50 was 20 µM.

What about the TGI (MOLT-4 leukemia) of the same compound?
Its TGI is 52.5 µM.

What about the GI50 (NCI-H226 lung) of the same compound?
The GI50 was 54.5 µM.

And the TGI (NCI-H226 lung)?
The TGI was over 100 µM.

And the GI50 (NCI-H460 lung)?
The GI50 was 17.5 µM.

And the TGI (NCI-H460 lung)?
Its TGI is 32.9 µM.

And the GI50 (NCI-H522 lung)?
The GI50 was 17.4 µM.

What about the TGI (NCI-H522 lung) of the same compound?
The TGI was 38 µM.

And the GI50 (NCI/ADR-RES ovarian)?
The GI50 was 28.3 µM.

What about the TGI (NCI/ADR-RES ovarian) of the same compound?
The TGI was over 100 µM.

What about the GI50 (OVCAR-3 ovarian) of the same compound?
The GI50 was 24 µM.

And the TGI (OVCAR-3 ovarian)?
Its TGI is 69 µM.

And the GI50 (OVCAR-4 ovarian)?
Its GI50 is 35.4 µM.

What about the TGI (OVCAR-4 ovarian) of the same compound?
The TGI was over 100 µM.

And the GI50 (OVCAR-5 ovarian)?
The GI50 was 33.7 µM.

What about the TGI (OVCAR-5 ovarian) of the same compound?
Its TGI is over 100 µM.

And the GI50 (OVCAR-8 ovarian)?
The GI50 was 31 µM.

And the TGI (OVCAR-8 ovarian)?
The TGI was over 100 µM.

What about the GI50 (PC-3 prostate) of the same compound?
Its GI50 is 23.7 µM.

What about the TGI (PC-3 prostate) of the same compound?
The TGI was 74.8 µM.

What about the GI50 (RPMI-8226 leukemia) of the same compound?
The GI50 was 20.8 µM.

And the TGI (RPMI-8226 leukemia)?
The TGI was 54.5 µM.

And the GI50 (RXF 393 renal)?
The GI50 was 13.8 µM.

What about the TGI (RXF 393 renal) of the same compound?
The TGI was 28.1 µM.

And the GI50 (SF-268 CNS)?
The GI50 was 36.3 µM.

What about the TGI (SF-268 CNS) of the same compound?
The TGI was over 100 µM.

What about the GI50 (SF-295 CNS) of the same compound?
The GI50 was 21 µM.

And the TGI (SF-295 CNS)?
Its TGI is 42.1 µM.

What about the GI50 (SF-539 CNS) of the same compound?
Its GI50 is 16.1 µM.

What about the TGI (SF-539 CNS) of the same compound?
Its TGI is 30.1 µM.

And the GI50 (SK-MEL-2 melanoma)?
The GI50 was 25.6 µM.

What about the TGI (SK-MEL-2 melanoma) of the same compound?
The TGI was 84.2 µM.

What about the GI50 (SK-MEL-28 melanoma) of the same compound?
Its GI50 is 16.7 µM.

And the TGI (SK-MEL-28 melanoma)?
The TGI was 31.5 µM.

What about the GI50 (SK-MEL-5 melanoma) of the same compound?
The GI50 was 17.8 µM.

And the TGI (SK-MEL-5 melanoma)?
Its TGI is 33.5 µM.

What about the GI50 (SK-OV-3 ovarian) of the same compound?
The GI50 was 48.7 µM.

What about the TGI (SK-OV-3 ovarian) of the same compound?
Its TGI is over 100 µM.

What about the GI50 (SN12C renal) of the same compound?
Its GI50 is 32.5 µM.

And the TGI (SN12C renal)?
Its TGI is over 100 µM.

And the GI50 (SNB-19 CNS)?
Its GI50 is 21.4 µM.

What about the TGI (SNB-19 CNS) of the same compound?
The TGI was 51.1 µM.

And the GI50 (SNB-75 CNS)?
Its GI50 is 19.9 µM.

What about the TGI (SNB-75 CNS) of the same compound?
The TGI was over 100 µM.

What about the GI50 (SR leukemia) of the same compound?
The GI50 was 18.8 µM.

What about the TGI (SR leukemia) of the same compound?
The TGI was 47.9 µM.

What about the GI50 (SW-620 colon) of the same compound?
Its GI50 is 16.2 µM.

And the TGI (SW-620 colon)?
Its TGI is 31.7 µM.

What about the GI50 (T-47D breast) of the same compound?
Its GI50 is 12.2 µM.

What about the TGI (T-47D breast) of the same compound?
Its TGI is 59.5 µM.

And the GI50 (TK-10 renal)?
Its GI50 is 79.7 µM.

What about the TGI (TK-10 renal) of the same compound?
Its TGI is over 100 µM.

And the GI50 (U251 CNS)?
Its GI50 is 16.5 µM.

What about the TGI (U251 CNS) of the same compound?
The TGI was 31.9 µM.

And the GI50 (UACC-257 melanoma)?
Its GI50 is 16.9 µM.

And the TGI (UACC-257 melanoma)?
Its TGI is 32.7 µM.

What about the GI50 (UACC-62 melanoma) of the same compound?
Its GI50 is 18.5 µM.

What about the TGI (UACC-62 melanoma) of the same compound?
Its TGI is 36.5 µM.

What about the GI50 (UO-31 renal) of the same compound?
Its GI50 is 13.5 µM.

And the TGI (UO-31 renal)?
Its TGI is 28.8 µM.
